Source: patent US9309242B2, “Substituted pyrido[2,3-b]pyrazines as FGFR kinase inhibitors” (priority 2011, dated 2016)

Key:
FGFR4 (h) = FGFR4 (h) (Homo sapiens, UniProt P22455); assay: FGFR4 (enzymatic assay), TR-FRET; type: biochemical; details: FGFR 4 pIC50, enzymatic assay
[1] = biological target: Ba/F3-FGFR4-transfected cells (Homo sapiens, UniProt P22455); assay: Ba/F3-FGFR4 cellular proliferation assay, Alamar Blue; type: cell-based
Summary of the method: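 Fluorescence read-out (ex. 540 nm, em. 590 nm) of resazurin-based Alamar Blue after 4 h, following 24 h compound exposure of Ba/F3-FGFR4-transfected cells (20000/well) at 37° C, 5% CO2.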

[2] = biological target: T1, Ba/F3-FGFR1-transfected cells (Homo sapiens, UniProt P11362); assay: Ba/F3-FGFR1 (minus IL3) cellular proliferation assay, Alamar Blue; type: cell-based
T1 construct: BAF3-FGFR1 (MIN IL3) pIC50; other: minus IL3
T1 sequence (P11362 whole entry, change not shown): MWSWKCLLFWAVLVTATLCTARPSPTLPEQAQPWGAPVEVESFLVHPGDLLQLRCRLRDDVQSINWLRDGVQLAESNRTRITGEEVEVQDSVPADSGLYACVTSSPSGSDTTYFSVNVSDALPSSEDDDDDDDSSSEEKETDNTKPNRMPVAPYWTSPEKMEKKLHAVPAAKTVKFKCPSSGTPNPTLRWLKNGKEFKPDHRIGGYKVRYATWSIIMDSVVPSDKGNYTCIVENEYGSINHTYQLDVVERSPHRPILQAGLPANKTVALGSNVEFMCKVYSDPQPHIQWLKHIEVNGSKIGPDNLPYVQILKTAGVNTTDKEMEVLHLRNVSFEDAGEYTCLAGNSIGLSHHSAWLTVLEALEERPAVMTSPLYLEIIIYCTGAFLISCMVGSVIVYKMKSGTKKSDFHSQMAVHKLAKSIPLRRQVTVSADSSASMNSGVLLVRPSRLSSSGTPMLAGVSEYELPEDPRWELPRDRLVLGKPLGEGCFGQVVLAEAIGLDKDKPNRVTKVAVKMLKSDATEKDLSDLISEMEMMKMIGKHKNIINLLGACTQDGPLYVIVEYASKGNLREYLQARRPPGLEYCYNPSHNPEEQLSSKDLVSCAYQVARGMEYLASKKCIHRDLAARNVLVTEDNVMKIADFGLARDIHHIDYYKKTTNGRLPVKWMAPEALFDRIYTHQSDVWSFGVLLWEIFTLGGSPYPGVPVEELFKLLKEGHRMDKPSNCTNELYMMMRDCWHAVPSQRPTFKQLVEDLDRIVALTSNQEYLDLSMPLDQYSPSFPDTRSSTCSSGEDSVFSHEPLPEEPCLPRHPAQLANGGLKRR
Summary of the method: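 Compound is dispensed first, then FGFR1-transfected Ba/F3 cells are added at 20000 per well in phenol red-free RPMI-1640 containing 10% FBS. After 24 h at 37 °C, Alamar Blue is added for 4 h and fluorescence is measured at 540/590 nm.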

[3] = system: Ba/F3-FGFR3-transfected cells; assay: Ba/F3-FGFR3 (plus IL3) cellular proliferation assay, counterscreen with 10 ng/ml murine IL3; type: cell-based; details: plus IL3 (10 ng/ml murine IL3, counterscreen); read-out: BAF3-FGFR3 (PLUS IL3) pIC50 (converted)
Summary of the method: (§1)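 Compound dilutions were dispensed first, then 20000 FGFR3-transfected Ba/F3 cells per well in serum-containing RPMI-1640 were added. After 24 h incubation at 37° C, Alamar Blue was applied for 4 h before relative fluorescence units were recorded. In the minus-IL3 format cells grow without cytokine; the other format contains 10 ng/ml murine IL3.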

KDR (h) = KDR (h) (Homo sapiens, UniProt P35968); assay: KDR (VEGFR2) (enzymatic assay), TR-FRET; type: biochemical; details: read-out: VEGFR 2 (KDR) pIC50 (converted)
Sequence of KDR (h) (P35968 20-1356): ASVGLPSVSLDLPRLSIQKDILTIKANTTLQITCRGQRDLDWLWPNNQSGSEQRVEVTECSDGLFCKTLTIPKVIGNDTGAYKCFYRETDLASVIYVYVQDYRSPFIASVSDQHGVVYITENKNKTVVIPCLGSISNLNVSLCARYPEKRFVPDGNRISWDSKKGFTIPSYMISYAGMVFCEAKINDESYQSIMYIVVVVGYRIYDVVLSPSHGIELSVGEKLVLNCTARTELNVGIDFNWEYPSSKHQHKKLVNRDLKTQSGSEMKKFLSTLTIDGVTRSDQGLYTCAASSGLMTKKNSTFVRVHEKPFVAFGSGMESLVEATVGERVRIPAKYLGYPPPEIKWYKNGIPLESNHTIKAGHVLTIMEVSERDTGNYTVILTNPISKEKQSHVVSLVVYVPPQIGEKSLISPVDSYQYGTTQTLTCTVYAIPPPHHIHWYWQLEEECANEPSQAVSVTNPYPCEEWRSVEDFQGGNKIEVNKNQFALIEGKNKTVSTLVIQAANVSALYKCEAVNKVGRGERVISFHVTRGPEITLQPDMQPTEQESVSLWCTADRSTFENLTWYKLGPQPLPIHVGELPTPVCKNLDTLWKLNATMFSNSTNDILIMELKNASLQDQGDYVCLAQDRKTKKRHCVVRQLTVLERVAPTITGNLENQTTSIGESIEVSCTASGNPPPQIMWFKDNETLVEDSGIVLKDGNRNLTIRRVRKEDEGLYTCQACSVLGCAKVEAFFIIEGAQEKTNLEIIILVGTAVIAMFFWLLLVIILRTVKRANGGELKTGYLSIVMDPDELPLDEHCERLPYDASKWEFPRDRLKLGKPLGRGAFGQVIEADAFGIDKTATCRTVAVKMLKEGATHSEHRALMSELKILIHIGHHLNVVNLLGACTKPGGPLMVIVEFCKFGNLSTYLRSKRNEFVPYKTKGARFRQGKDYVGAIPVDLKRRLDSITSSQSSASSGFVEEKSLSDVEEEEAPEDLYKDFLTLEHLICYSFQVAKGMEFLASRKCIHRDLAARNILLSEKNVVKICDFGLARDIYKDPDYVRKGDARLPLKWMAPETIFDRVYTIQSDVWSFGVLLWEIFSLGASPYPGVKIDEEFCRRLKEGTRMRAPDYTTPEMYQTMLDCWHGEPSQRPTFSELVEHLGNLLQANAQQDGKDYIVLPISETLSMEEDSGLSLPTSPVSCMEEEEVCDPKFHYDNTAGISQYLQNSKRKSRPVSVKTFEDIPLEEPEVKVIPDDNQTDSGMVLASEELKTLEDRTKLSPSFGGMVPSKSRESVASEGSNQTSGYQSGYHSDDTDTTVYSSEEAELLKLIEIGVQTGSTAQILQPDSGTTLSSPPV
Summary of the method: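 3 μM ATP, 500 nM Btn-Flt3 substrate, 150 ng/ml kinase; HEPES pH 7.5 with MnCl2, DTT, vanadate, Triton; 1% DMSO. 120 min RT. Stop: EDTA + Eu-anti-P-Tyr + SA-XL-665, 60 min RT. Readout TR-FRET ex340/em620, 655 nm, RFU.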

[4] = biological target: T2, Ba/F3-FGFR3-transfected cells (Homo sapiens, UniProt P22607); assay: Ba/F3-FGFR3 (minus IL3) cellular proliferation assay, Alamar Blue; type: cell-based
T2 construct: BAF3-FGFR3 (MIN IL3) pIC50; other: minus IL3
Summary of the method: as §1

[5] = system: Ba/F3-FGFR1-transfected cells; assay: Ba/F3-FGFR1 (plus IL3) cellular proliferation assay, counterscreen with 10 ng/ml murine IL3; type: cell-based; details: plus IL3 (10 ng/ml murine IL3, counterscreen); read-out: BAF3-FGFR1 (PLUS IL3) pIC50 (converted)
Summary of the method: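 Proliferation read-out: resazurin-based Alamar Blue fluorescence (540/590 nm) after 4 h, following 24 h compound treatment of 20000 Ba/F3-FGFR1 cells per well in 10% FBS RPMI at 37° C. IL3 counterscreen used the same protocol plus 10 ng/ml murine IL3.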

[6] = biological target: T3, Ba/F3-KDR-transfected cells (Homo sapiens, UniProt P35968); assay: Ba/F3-KDR (minus IL3) cellular proliferation assay, Alamar Blue; type: cell-based
T3 construct: BAF3-KDR (MIN IL3) pIC50; other: minus IL3
Summary of the method: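 Read-out: resazurin-based Alamar Blue fluorescence (ex. 540, em. 590 nm) after 4 h. Before that, cells were incubated with compound for 24 h at 37° C. The counterscreen ran identically but with IL3 supplemented.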

FGFR1 (h) = FGFR1 (h) (Homo sapiens, UniProt P11362); assay: FGFR1 (enzymatic assay), TR-FRET; type: biochemical; details: read-out: FGFR 1 pIC50 (converted)
Sequence of FGFR1 (h) (P11362 22-822): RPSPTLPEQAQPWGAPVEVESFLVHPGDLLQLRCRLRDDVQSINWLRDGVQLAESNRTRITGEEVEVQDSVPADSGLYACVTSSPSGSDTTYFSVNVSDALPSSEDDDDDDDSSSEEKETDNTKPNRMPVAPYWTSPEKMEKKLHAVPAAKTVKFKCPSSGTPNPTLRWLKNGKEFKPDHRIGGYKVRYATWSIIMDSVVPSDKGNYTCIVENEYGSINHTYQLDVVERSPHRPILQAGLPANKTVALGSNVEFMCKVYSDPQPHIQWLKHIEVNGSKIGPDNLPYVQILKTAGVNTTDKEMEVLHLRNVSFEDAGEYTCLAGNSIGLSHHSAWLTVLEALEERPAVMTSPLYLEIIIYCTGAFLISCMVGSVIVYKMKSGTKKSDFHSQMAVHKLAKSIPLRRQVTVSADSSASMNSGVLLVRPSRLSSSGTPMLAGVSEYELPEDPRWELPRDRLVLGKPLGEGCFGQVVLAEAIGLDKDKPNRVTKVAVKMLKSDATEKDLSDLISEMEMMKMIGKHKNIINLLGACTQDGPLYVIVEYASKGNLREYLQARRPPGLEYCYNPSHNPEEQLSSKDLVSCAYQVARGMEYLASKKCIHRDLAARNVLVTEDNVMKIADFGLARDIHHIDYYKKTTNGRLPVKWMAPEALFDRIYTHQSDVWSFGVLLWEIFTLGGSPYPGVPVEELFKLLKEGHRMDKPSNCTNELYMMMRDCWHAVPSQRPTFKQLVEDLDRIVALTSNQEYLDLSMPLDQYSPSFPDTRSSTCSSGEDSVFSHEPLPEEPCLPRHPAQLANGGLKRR

Sequence of Ba/F3-FGFR4-transfected cells (P22455 whole entry, change not shown): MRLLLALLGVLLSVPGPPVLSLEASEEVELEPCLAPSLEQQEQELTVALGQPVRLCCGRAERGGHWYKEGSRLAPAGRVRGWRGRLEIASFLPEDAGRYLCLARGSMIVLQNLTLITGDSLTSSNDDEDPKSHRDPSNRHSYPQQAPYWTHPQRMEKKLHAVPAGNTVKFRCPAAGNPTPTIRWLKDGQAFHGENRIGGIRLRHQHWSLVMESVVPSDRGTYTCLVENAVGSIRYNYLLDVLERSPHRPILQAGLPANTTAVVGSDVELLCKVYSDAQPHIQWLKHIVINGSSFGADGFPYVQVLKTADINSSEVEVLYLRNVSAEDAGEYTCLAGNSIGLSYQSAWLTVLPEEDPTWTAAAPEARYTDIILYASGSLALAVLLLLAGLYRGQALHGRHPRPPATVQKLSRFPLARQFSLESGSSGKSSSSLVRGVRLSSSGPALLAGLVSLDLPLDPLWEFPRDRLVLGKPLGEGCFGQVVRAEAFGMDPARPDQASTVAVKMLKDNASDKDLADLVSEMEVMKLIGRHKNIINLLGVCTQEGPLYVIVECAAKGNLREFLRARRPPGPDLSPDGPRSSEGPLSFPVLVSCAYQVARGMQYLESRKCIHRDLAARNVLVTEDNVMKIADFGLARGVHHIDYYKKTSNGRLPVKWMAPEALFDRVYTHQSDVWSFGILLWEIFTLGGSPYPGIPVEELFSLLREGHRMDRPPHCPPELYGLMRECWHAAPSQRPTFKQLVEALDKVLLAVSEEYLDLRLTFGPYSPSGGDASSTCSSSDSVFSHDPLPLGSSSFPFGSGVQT
Sequence of FGFR4 (h) (P22455 22-802): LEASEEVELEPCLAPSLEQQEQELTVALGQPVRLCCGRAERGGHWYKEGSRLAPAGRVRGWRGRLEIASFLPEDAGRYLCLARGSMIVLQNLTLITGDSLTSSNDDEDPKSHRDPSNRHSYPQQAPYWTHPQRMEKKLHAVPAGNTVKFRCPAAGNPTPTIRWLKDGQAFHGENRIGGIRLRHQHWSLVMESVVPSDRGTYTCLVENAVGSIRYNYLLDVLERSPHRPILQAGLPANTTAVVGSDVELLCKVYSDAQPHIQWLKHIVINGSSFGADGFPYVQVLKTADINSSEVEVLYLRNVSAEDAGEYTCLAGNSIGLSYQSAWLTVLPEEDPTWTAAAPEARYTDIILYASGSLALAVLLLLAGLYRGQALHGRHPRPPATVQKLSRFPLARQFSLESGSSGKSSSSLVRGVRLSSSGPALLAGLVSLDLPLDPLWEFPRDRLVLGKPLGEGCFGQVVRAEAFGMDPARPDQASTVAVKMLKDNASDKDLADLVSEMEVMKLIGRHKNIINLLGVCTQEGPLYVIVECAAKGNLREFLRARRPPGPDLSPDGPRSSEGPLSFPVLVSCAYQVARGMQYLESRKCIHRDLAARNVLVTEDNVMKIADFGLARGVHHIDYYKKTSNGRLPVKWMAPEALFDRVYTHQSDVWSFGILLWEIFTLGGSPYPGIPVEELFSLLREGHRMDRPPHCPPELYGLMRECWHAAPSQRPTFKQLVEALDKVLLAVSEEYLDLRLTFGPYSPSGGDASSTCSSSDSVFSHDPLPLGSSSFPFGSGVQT

## COc1cc(OC)c(F)c(N(CC(=O)NCCO)c2ccc3ncc(-c4cnn(C)c4)nc3n2)c1 [Compound 230]
FGFR4 (h)
  IC50: 42.7 nM
[1]
  BAF3-FGFR4 pIC50: 5.73
[2]
  BAF3-FGFR1 (MIN IL3) pIC50: 6.09
[3]
  IC50: > 10000 nM
KDR (h)
  IC50: 363 nM
[4]
  BAF3-FGFR3 (MIN IL3) pIC50: 6.18
[5]
  IC50: > 10000 nM
[6]
  BAF3-KDR (MIN IL3) pIC50: 5.04
FGFR1 (h)
  IC50: 7.59 nM

## COc1cc(OC)cc(N(Cc2n[nH]c(=O)o2)c2ccc3ncc(-c4cnn(C)c4)nc3n2)c1 [Compound 229]
FGFR4 (h)
  IC50: 22.4 nM
[1]
  BAF3-FGFR4 pIC50: 5.45
[2]
  BAF3-FGFR1 (MIN IL3) pIC50: 5.97
[3]
  IC50: > 10000 nM
KDR (h)
  IC50: 182 nM
[4]
  BAF3-FGFR3 (MIN IL3) pIC50: 6.05
[5]
  IC50: > 10000 nM
[6]
  BAF3-KDR (MIN IL3) pIC50: <5
FGFR1 (h)
  IC50: 4.9 nM

## COc1cc(/N=c2\ccc3ncc(-c4cnn(CC(C)(C)O)c4)nc3n2CC(C)(C)O)c(F)c(OC)c1 (single isomer, unassigned) [Compound 207]
FGFR4 (h)
  IC50: 3.16 nM
[1]
  BAF3-FGFR4 pIC50: 6.69
[2]
  BAF3-FGFR1 (MIN IL3) pIC50: 7.45
[3]
  IC50: > 10000 nM
KDR (h)
  IC50: 8.32 nM
[4]
  BAF3-FGFR3 (MIN IL3) pIC50: ~7.57
[5]
  IC50: > 10000 nM
[6]
  BAF3-KDR (MIN IL3) pIC50: 6.11
FGFR1 (h)
  IC50: 0.813 nM

## COc1cc(OC)cc(N(Cc2ncc[nH]2)c2ccc3ncc(-c4cnn(C5CCNCC5)c4)nc3n2)c1 [Compound 227]
FGFR4 (h)
  IC50: 1.82 nM
[1]
  BAF3-FGFR4 pIC50: 6.91
[2]
  BAF3-FGFR1 (MIN IL3) pIC50: 7.73
[3]
  IC50: > 10000 nM
KDR (h)
  IC50: 12 nM
[4]
  BAF3-FGFR3 (MIN IL3) pIC50: 7.63
[5]
  IC50: > 10000 nM
[6]
  BAF3-KDR (MIN IL3) pIC50: 5.79
FGFR1 (h)
  IC50: 0.562 nM

## COc1cc(OC)cc(N(CC2CCCOC2)c2ccc3ncc(-c4cnn(C)c4)nc3n2)c1 (stereo not drawn) [Compound 166]
FGFR4 (h)
  IC50: 9.33 nM
[1]
  BAF3-FGFR4 pIC50: 6.24
[2]
  BAF3-FGFR1 (MIN IL3) pIC50: 6.72
[3]
  IC50: > 10000 nM
KDR (h)
  IC50: 55 nM
[4]
  BAF3-FGFR3 (MIN IL3) pIC50: 6.65
[5]
  IC50: > 10000 nM
[6]
  BAF3-KDR (MIN IL3) pIC50: 5.07
FGFR1 (h)
  IC50: 5.62 nM

## COc1cc(/N=c2\ccc3ncc(-c4cnn(C)c4)nc3n2CCN2CCCC2=O)c(F)c(OC)c1 [Compound 156]
FGFR4 (h)
  IC50: 6.92 nM
[1]
  BAF3-FGFR4 pIC50: 6.68
[2]
  BAF3-FGFR1 (MIN IL3) pIC50: 7.17
[3]
  IC50: > 10000 nM
KDR (h)
  IC50: 29.5 nM
[4]
  BAF3-FGFR3 (MIN IL3) pIC50: 7.27
[5]
  IC50: > 10000 nM
[6]
  BAF3-KDR (MIN IL3) pIC50: 5.52
FGFR1 (h)
  IC50: 2.95 nM

## COc1cc(/N=c2\ccc3ncc(-c4cnn(C)c4)nc3n2Cc2cnn(C)c2)c(F)c(OC)c1 [Compound 196]
FGFR4 (h)
  IC50: ~0.891 nM
[1]
  BAF3-FGFR4 pIC50: ~8.62
[2]
  BAF3-FGFR1 (MIN IL3) pIC50: 8.95
[3]
  IC50: > 10000 nM
KDR (h)
  IC50: 3.98 nM
[4]
  BAF3-FGFR3 (MIN IL3) pIC50: ~8.66
[5]
  IC50: > 10000 nM
[6]
  BAF3-KDR (MIN IL3) pIC50: 7.41
FGFR1 (h)
  IC50: 0.407 nM

## COc1ccc(Cl)c(N(CC2CCC(=O)N2)c2ccc3ncc(-c4cnn(C)c4)nc3n2)c1Cl (stereo not drawn) [Compound 93]
FGFR4 (h)
  IC50: 794 nM
[1]
  BAF3-FGFR4 pIC50: 5.02
[2]
  BAF3-FGFR1 (MIN IL3) pIC50: 5.59
[3]
  IC50: > 10000 nM
KDR (h)
  IC50: > 1000 nM
[4]
  BAF3-FGFR3 (MIN IL3) pIC50: ~5.59
[5]
  IC50: > 10000 nM
[6]
  BAF3-KDR (MIN IL3) pIC50: <5
FGFR1 (h)
  IC50: 66.1 nM

## COc1cc(/N=c2\ccc3ncc(-c4cnn(C)c4)nc3n2CCN2CCOCC2)cc(OC)c1 [Compound 147]
FGFR4 (h)
  IC50: 3.24 nM
[1]
  BAF3-FGFR4 pIC50: 6.85
[2]
  BAF3-FGFR1 (MIN IL3) pIC50: 7.28
[3]
  IC50: > 10000 nM
KDR (h)
  IC50: 5.62 nM
[4]
  BAF3-FGFR3 (MIN IL3) pIC50: 7.23
[5]
  IC50: > 10000 nM
[6]
  BAF3-KDR (MIN IL3) pIC50: 6.17
FGFR1 (h)
  IC50: 1.51 nM

## COc1cc(OC)c(F)c(N(Cc2nc(OC)cc(OC)n2)c2ccc3ncc(-c4cnn(C)c4)nc3n2)c1 [Compound 220]
FGFR4 (h)
  IC50: 29.5 nM
[1]
  BAF3-FGFR4 pIC50: 5.83
[2]
  BAF3-FGFR1 (MIN IL3) pIC50: 6.32
[3]
  IC50: > 10000 nM
KDR (h)
  IC50: 50.1 nM
[4]
  BAF3-FGFR3 (MIN IL3) pIC50: 5.91
[5]
  IC50: > 10000 nM
[6]
  BAF3-KDR (MIN IL3) pIC50: 5.22
FGFR1 (h)
  IC50: 4.17 nM
